From US11104670B2, “4-pyrimidin-5-ylmethyl-morpholine derivatives and the use thereof as medicament” (Boehringer Ingelheim International GmbH, priority 2018, dated 2021)
One block for each molecule: values may come before it.

Tests used:
Type in all cases: cell-based
NMDA NR1/NR2B receptor [1] = target: NMDA NR1/NR2B receptor (Homo sapiens (Human), UniProt Q05586+Q13224); test: NMDA NR1/NR2B FLIPR calcium assay in HEK293 cells; details: glycine/glutamate-induced calcium, read-out: IC50, in vitro NR2B affinity in the FLIPR assay
Chain of NMDA NR1/NR2B receptor (Homo sapiens (Human), UniProt Q05586+Q13224) (Q13224 27-1484, other chains not shown): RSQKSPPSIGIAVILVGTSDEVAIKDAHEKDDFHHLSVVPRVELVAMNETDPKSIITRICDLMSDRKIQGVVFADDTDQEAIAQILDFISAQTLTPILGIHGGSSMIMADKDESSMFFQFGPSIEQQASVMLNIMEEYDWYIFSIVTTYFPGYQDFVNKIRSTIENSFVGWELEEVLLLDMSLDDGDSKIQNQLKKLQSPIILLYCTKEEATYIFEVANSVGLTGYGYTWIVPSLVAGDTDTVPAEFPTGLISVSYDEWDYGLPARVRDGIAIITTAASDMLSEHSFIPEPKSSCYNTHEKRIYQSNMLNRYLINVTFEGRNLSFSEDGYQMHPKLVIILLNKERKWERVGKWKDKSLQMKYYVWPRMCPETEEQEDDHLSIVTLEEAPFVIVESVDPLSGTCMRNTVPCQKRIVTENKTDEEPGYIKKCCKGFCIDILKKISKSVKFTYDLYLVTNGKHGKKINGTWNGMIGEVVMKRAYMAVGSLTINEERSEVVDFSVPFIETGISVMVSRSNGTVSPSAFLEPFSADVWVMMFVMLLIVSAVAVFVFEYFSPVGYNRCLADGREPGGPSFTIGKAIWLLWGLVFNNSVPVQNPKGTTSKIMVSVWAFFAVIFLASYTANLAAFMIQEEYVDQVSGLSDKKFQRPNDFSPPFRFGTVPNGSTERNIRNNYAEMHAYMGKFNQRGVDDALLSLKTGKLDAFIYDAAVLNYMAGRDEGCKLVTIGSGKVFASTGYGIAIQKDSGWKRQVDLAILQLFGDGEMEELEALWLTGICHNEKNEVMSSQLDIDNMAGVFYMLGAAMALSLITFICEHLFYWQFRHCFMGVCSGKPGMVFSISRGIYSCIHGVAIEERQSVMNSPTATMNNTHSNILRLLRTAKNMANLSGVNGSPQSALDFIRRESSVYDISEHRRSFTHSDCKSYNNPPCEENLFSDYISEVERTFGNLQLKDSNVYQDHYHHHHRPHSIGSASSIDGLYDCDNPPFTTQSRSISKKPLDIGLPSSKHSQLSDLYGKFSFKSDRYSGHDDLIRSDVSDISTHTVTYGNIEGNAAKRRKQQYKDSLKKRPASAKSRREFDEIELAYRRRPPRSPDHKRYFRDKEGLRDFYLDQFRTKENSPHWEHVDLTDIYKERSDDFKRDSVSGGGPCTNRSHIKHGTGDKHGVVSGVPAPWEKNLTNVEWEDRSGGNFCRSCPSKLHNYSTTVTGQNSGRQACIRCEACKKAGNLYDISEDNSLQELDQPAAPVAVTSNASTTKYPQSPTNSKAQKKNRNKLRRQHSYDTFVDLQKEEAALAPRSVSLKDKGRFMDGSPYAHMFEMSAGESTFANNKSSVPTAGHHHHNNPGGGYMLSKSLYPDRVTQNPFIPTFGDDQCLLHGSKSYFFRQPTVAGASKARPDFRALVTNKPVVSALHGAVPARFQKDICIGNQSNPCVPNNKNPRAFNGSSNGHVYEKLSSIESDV
Protocol: (§1) A human HEK293 cell line with tetracyclin-inducible expression of NMDA NR1/NR2B receptor was used as a test system for compound efficacy and potency. The cell line was purchased from ChanTest, Catalog #CT6121. Compound activity was determined by measuring the effect of compounds on intracellular calcium concentration induced by glycine/glutamate agonism in a FLIPRtetra system (Molecular Devices).
(§2) The cells were obtained as frozen cells in cryo-vials and stored until use at −150° C. Cells were grown in culture medium (DMEM/F12, 10% FBS, 5 μg/mL Blasticidin, 150 μg/mL Zeozin, 500 μg/mL Geneticin). […] For sub-culturing the cells were detached from flasks by Versene. For the assay, cells were detached, washed twice with induction medium (DMEM/F12 without glutamine, 10% FBS, 2 μg/mL Tetracycline, 2 mM Ketamine) and seeded to 384 well pure coat amine plates (Becton Dickinson, 50000 cells per well in 50 μl) 48 h prior to assay in induction medium.
(§3) The test compounds were dissolved in 100% DMSO at a concentration of 10 mM and in a first step diluted in DMSO to a concentration of 5 mM, followed by serial dilution steps in 100% DMSO. Dilution factor and number of dilution steps may vary according to needs. Typically 8 different concentrations by 1:5 dilutions were prepared in duplicate, further intermediate dilutions (1:37.5) of the substances were carried out with aqueous assay buffer (137 mM NaCl, 4 mM KCl, 1.8 mM CaCl2), 10 mM HEPES, 10 mM Glucose, pH 7.4) resulting in a compound concentration 3 times above the final test concentration and DMSO at 2.7% resulting in 0.9% final DMSO concentration in the assay.
(§4) At the assay day cells were washed 3× with assay buffer (as described above), 10 μL buffer remained in the wells after washing. 10 μL Ca kit loading buffer (AAT Bioquest; prepared from the kit containing the following components: Component A: Fluo-8 NW dissolved in 200 μL DMSO and 20 μl of this solution are mixed with 10 ml buffer prepared out of component B and C, Component B: 10× Pluronic® F127 Plus diluted 1:10 in component C, Component C: HHBS (Hanks with 20 mM Hepes) was added to the cells and the plates were incubated with lid for 60 minutes at room temperature. 20 μl assay buffer containing 60 μM glycine (20 μM final) and 3 μM glutamate (1 μM final) was added to column 1-23, column 24 got assay buffer without glycine/glutamate to serve as negative unstimulated control. Fluorescence (indicating the calcium influx as a result of the NR1/NR2B ion channel activation) was read on the FLIPRtetra device for 60 seconds to monitor the glutamate induced effects. After 2 minutes 20 μL of compound dilution prepared as described above or controls (row 1-22) in assay buffer were carefully added to the wells. […] The average of 2 measurements at 5 minutes and 5 min 10 seconds after compound addition is calculated and further used for IC50 calculations. Each assay microtiter compound dilution plate contained wells (in column 23 or 24) with DMSO controls instead of compound as controls for glycine/glutamate induced fluorescence (high controls) and wells with 1 μM of a reference NR2B NAM as low controls (Compound 22; reference: Layton, Mark E et al, ACS Chemical Neuroscience 2011, 2(7), 352-362).
(§5) The output file of the reader contains the well number and measured average fluorescence units. For data evaluation and calculation, the measurement of the low control was set as 0% control and the measurement of the high control was set as 100% control. The IC50 values were calculated using the standard 4 parameter logistic regression formula. Calculation: [y=(a−d)/(1+(x/c)^b)+d], a=low value, d=high value; x=conc M; c=IC50 M; b=slope.

Nav1.6 channel = Nav1.6 channel (Homo sapiens (Human), UniProt Q9UQD0); test: Nav1.6 inhibition, IonWorks Quattro electrophysiology; details: for inhibition at 1 µM / Normalized % inhibition at 5 μM / inhibition at 5 µM: normalized to vehicle (0%) and maximal inhibition control (100%)
Chain of Nav1.6 channel (Q9UQD0 whole entry): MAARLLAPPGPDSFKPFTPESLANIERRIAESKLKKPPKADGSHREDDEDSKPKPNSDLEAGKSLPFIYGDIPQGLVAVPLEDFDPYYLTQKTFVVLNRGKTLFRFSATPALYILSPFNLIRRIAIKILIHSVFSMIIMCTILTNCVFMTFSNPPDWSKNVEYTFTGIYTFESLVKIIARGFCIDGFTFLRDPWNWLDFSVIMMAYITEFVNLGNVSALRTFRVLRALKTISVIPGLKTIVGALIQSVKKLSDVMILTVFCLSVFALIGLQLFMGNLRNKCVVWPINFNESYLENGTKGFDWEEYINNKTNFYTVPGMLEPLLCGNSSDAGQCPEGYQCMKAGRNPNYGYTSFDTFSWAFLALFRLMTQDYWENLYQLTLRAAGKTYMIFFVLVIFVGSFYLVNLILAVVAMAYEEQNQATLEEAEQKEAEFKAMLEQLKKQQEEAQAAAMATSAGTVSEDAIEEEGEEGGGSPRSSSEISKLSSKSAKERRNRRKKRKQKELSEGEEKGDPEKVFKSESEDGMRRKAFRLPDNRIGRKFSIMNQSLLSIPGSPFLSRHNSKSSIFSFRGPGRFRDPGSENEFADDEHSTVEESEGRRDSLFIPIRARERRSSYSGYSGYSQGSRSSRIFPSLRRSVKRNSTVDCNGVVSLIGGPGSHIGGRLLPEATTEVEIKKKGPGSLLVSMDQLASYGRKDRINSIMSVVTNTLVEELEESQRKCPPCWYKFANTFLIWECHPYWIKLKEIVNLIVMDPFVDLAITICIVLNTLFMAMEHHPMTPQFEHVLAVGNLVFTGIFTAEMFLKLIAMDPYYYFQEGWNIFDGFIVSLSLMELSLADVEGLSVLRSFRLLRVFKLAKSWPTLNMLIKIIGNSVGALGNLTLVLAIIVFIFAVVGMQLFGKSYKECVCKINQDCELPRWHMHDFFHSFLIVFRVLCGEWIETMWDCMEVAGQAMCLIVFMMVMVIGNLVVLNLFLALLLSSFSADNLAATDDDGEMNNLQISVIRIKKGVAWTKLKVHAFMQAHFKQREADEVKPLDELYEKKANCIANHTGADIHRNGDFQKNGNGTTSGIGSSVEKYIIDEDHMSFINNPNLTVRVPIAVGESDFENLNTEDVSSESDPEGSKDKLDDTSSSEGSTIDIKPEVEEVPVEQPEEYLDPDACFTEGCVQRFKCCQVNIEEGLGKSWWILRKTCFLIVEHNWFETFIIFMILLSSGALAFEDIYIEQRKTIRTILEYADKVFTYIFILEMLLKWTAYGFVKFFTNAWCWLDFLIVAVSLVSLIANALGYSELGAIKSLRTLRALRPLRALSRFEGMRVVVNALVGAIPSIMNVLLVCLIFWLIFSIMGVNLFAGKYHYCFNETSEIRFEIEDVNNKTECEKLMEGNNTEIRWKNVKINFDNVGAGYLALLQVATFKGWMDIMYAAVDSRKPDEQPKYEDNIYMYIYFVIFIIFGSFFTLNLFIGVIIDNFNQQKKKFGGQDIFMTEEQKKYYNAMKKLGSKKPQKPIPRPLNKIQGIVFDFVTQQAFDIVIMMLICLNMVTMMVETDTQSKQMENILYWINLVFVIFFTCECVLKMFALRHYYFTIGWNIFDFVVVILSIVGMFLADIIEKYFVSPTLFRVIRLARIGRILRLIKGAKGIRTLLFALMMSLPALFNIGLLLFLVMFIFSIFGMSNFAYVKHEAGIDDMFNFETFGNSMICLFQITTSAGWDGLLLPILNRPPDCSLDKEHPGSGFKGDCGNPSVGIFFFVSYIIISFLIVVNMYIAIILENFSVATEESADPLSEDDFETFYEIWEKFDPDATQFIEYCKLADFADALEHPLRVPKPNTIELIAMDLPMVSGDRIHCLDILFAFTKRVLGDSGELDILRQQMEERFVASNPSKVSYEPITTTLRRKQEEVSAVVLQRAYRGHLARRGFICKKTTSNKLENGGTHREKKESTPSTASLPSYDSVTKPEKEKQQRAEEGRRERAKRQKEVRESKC
Protocol: Ion Works Quattro electrophysiological platform
The compounds were prepared in DMSO at 300× the final assay concentrations of 1 and 5 μM.
The 300× DMSO stock solutions were transferred into assay plates where 2 μl per well of each 300× stock solution were placed. All assay plates were stored at −80° C. until the day of assay.
On the day of the assay, the appropriate assay plate was thawed at room temperature, centrifuged, and 198 μl of external recording solution was added and mixed thoroughly. This provided a 1:100 dilution. A further 1:3 dilution occurred upon addition to the cells in the IonWorks Quattro electrophysiological platform, giving a 1:300 dilution in total.
On each assay plate, at least 8 wells were reserved for vehicle control (0.3% DMSO) and at least 8 wells for each positive control specific to the cell line tested. The positive controls were tested at a maximal blocking and an approximate IC50 concentration. As positive control Lidocaine at concentrations of 30 and 1000 μM was used.
Amphotericin B was used to obtain electrical access to the cell interior at a final concentration of 200 μg/ml in internal recording solution.
State-dependent inhibition: Sodium channels when held at depolarized potential or long test pulse, the channels open and inactivate and then stay inactivated until the membrane potential is stepped back to hyperpolarized potentials, when the inactivated channels recover from inactivation into closed state.
Cells were held at −120 mV. In order to completely inactivate the sodium channels (pulse 1), the cells were pulsed to +0 mV for 2500 ms and stepped back to −120 mV for 10 ms (to completely recover from inactivation, however channels that had drugs bound to them will not recover from inactivation) before stepping to +0 mV for 20 ms (pulse 2).
Both the positive and vehicle control data associated with each cell line assayed are shown below as an example. The mean is shown for each positive and negative control as solid symbol with the total number of individual well replicates given next to the solid symbol. In addition, the individual data of each well are shown on the graph as open symbols so that the variation about the mean value can be readily assessed.
In FIG. 2, a Post/Pre value of 1.0 corresponds to 0% inhibition, a Post/Pre value of 0.0 corresponds to 100% inhibition.
Tables 3 and 4 show the normalized percentage inhibition of Nav1.6 channel. […] (see also the figure Assay Control Results above).

NMDA NR1/NR2B receptor [2] = target: NMDA NR1/NR2B receptor (Homo sapiens (Human), UniProt Q13224); test: NMDA NR1/NR2B FLIPR calcium assay in HEK293 cells; details: glycine/glutamate-induced calcium, read-out: IC50, in vitro NR2B affinity in the FLIPR assay
Chain of NMDA NR1/NR2B receptor (Homo sapiens (Human), UniProt Q13224) (Q13224 27-1484, other chains not shown): as the sequence (Q13224 27-1484, other chains not shown) above
Protocol: as §1, §2, §3, §4, §5

SMILES: O=C(C1CN(Cc2cccc(Oc3ccccc3)c2)CCO1)N1CCOCC1 (stereo not drawn) [Example 106, reference compound]
IC50 (NMDA NR1/NR2B receptor [1]): > 9260 nM
inhibition at 1 µM (Nav1.6 channel): -0.7%
Normalized % inhibition at 5 μM (Nav1.6 channel): 14%
inhibition at 5 µM (Nav1.6 channel): 14%

SMILES: CCN(CC)CC(=O)Nc1c(C)cccc1C [Lidocaine, reference compound]
inhibition of evoked Nav1.6 currents (in words) (Nav1.6 channel; assay control, 30 and 1000 μM): inhibited evoked currents in a concentration and use dependent manner
inhibition at 1000 µM (Nav1.6 channel; read-out: maximum inhibition at P1 (not normalized)): 46.4 to 47.2%

SMILES: CCCCNc1ccc(C(=O)OCCN(C)C)cc1 [Tetracaine, reference compound]
state-dependent inhibition of Nav1.6 (in words) (Nav1.6 channel; depolarized vs hyperpolarized potential): much stronger at depolarized potentials than at hyperpolarized potential

IC50 (NMDA NR1/NR2B receptor [2]): 933 nM
SMILES: CNC(=O)[C@@H]1CN(Cc2cnc(Oc3c(C)cccc3F)nc2)CCO1 [Example 35]

SMILES: CCNC(=O)C1CN(Cc2cccc(Oc3ccccc3)c2)CCO1 (stereo not drawn) [Example 100, reference compound]
IC50 (NMDA NR1/NR2B receptor [1]): > 8890 nM
inhibition at 1 µM (Nav1.6 channel): 2.2%
Normalized % inhibition at 5 μM (Nav1.6 channel): 37.8%
inhibition at 5 µM (Nav1.6 channel): 37.8%

IC50 (NMDA NR1/NR2B receptor [2]): 509 nM
SMILES: CNC(=O)[C@@H]1CN(Cc2cnc(Oc3ccccc3)nc2)CCO1 [Example 33]

SMILES: O=C(NCc1ccccn1)C1CN(Cc2cccc(Oc3ccccc3)c2)CCO1 (stereo not drawn) [Example 105, reference compound]
IC50 (NMDA NR1/NR2B receptor [1]): > 9260 nM
inhibition at 1 µM (Nav1.6 channel): 18.2%
Normalized % inhibition at 5 μM (Nav1.6 channel): 68%
inhibition at 5 µM (Nav1.6 channel): 68%

IC50 (NMDA NR1/NR2B receptor [2]): 362 nM
SMILES: CNC(=O)[C@@H]1CN(Cc2cnc(Oc3c(F)cccc3F)nc2)CCO1 [Example 34]
